What was measured:
[1] = test system: HIF-1α; test: Immunoblotting of HIF-1α and phospho-T455 in Dox-PIM1 PC3 cells; type: cell-based; settings: Dox-PIM1 PC3, dox 24 h, AZD1208 3 μM for 6 h (FIG. 3C)
[2] = test system: SW620 tumors; test: SW620 xenograft in SCID mice; type: in vivo
Procedure: (§1) FIG. 6: Five million parental, B24, or C34 SW620 cells in PBS were injected subcutaneously into the rear flanks of mice. Once the tumors reached a volume of approximately 100 mm^3, the mice were randomized for daily treatment with vehicle or AZD1208 (30 mg/kg/day, p.o.) for up to 2 weeks or until tumor burden reached a maximum volume of 2 cm^3. Tumors were measured every 2-3 days via caliper. Upon sacrifice, tumors were harvested for IHC staining with PIM1, HIF-1α, and CC3, and mRNA was collected for analysis.
(§2) For both, the following formula was used to calculate tumor volume by caliper measurements:
(§3) V=(tumor width)^2×tumor length/2.
(§4) These lines were validated by Sanger sequencing.

[3] = test system: HIF-1; test: HIF-1 reporter (HRE-Luc) assay in Dox-PIM1 cells; type: cell-based; settings: Dox 24 h, then AZD1208 for 4 h, normoxia (FIG. 3D)
[4] = test system: B24 and C34 tumors; test: B24 / C34 (HIF-1α T455D) xenografts in SCID mice; type: in vivo
Procedure: as §1, §2, §3, §4

[5] = test system: SW620 cells; test: MTT cell viability, parental SW620 cells; type: cell-based; settings: parental SW620, increasing doses, 24 h (FIG. 6B)
Procedure: (§5) Response to drug: Twenty thousand cells were plated onto a 96-well plate and allowed to grow for 24 h prior to addition of the drug, and MTT assays were performed after 24 h incubation with the indicated drugs. For MTT assays, media was removed from the cells by aspiration and 50 μL serum-free DMEM and 50 μL MTT solution were added to each well, and plates were incubated for 4 h at 37° C. After incubation, 150 μL of DMSO was added to each well for 15 minutes and absorbance was read at 540 nm.

[6] = test system: B24 and C34 cell lines; test: MTT cell viability, HIF-1α T455D mutant SW620 lines B24 and C34; type: cell-based; settings: B24 and C34, increasing doses, 24 h (FIG. 6B)
Procedure: as §5

[7] = target: T1, PIM1 (Homo sapiens, UniProt P11309); type: biochemical; settings: immunoprecipitated HA-HIF-1α, recombinant PIM1 (FIG. 4D)
T1 sequence (P11309 whole entry): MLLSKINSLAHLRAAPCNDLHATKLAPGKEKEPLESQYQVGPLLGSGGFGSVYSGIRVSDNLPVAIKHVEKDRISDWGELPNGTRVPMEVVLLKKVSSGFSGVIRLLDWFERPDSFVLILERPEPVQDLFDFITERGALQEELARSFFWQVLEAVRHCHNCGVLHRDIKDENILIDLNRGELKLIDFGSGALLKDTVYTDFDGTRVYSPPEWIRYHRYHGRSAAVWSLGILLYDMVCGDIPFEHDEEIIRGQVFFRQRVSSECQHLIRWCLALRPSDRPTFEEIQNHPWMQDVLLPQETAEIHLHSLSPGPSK
Procedure: In vivo: HA-HIF-1α or its mutant (T455A) were immunoprecipitated with anti-HA antibodies. Immune complexes were washed three times in lysis buffer, then washed twice in 1× kinase buffer and incubated with 0.1 μg of recombinant active PIM1 and 100 μmol/L of ATP for 30 min at 25° C. Reactions were stopped by washing twice in a cold kinase buffer and boiling in 2×SDS loading buffer. The sample was separated on a SDS-polyacrylamide gel and subjected to Western blot analysis with anti-phospho HIF-1α (T455) antibody.

[8] = target: T1, PIM1; type: biochemical; design: Recombinant full-length GST-PIM1 was incubated with recombinant GST-HIF-1α; GST; settings: in the presence of a PIM inhibitor (AZD1208 100 nM per method) (FIG. 4A)
Procedure: In vitro: Recombinant full-length GST-PIM1 was incubated with recombinant GST-HIF-1α, GST (negative control), or dephosphorylated myelin basic protein (MBP) in the presence or absence of AZD1208 (100 nM) and ^32P-labeled ATP in kinase assay buffer (20 mM MOPS [pH 7.0] containing 100 mM NaCl, 10 mmol/L MgCl2, and 2 mmol/L dithiothreitol). Reactions were incubated at 37° C. for 60 min prior to the addition of 5× Laemmli sample buffer. Samples were separated by SDS-PAGE and gels were stained with Coomassie prior to autoradiography or preparation for mass spectrometry.

[9] = test system: HIF-1 target genes; test: Hypoxia-inducible gene expression (RT2 profiler array, qRT-PCR) in PC3 Dox-PIM1 cells; type: cell-based; settings: eleven genes; Dox 24 h, ± AZD1208 for 8 h, normoxia (FIG. 3F)
Procedure: Hypoxia-responsive gene expression was measured and quantified using RT^2 hypoxia-signaling PCR profiler arrays using the manufacturer's software (Qiagen). All other qRT-PCR reactions were performed using qPCRBIO SyGreen Blue Mix (PCR Biosystems), according to the manufacturer's protocol. Validated primer sets (QuantiTech primer assays; Qiagen) for each of the following genes were purchased to measure gene expression: VEGF-A, angiopoietin like 4 (ANGPTL4), and hexokinase 2 (HK2). HIF1α, PIM1 and Actin primers were purchased from IDT. Actin was used to normalize.

[10] = test system: recombinant GST-HIF-1α
[11] = test system: HA-HIF-1α (wild-type)

| Compound | ability of PIM1 to increase HIF-1α protein levels [1] | HIF-1α levels in tumors (IHC) ([2]; SW620 tumors, AZD1208 30 mg/kg (FIG. 6I)) | apoptosis (cleaved caspase-3 staining) ([2]; SW620 tumors, AZD1208 30 mg/kg (FIG. 6J)) | expression of pro-angiogenic genes VEGF-A and ANGPT4 in tumor tissue (RT-PCR) ([2]; SW620 tumors, AZD1208 30 mg/kg (FIG. 6K)) | tumor volume ([2]; SW620 tumors, AZD1208 30 mg/kg/day p.o. (FIG. 6G)) | tumor vasculature (H&E staining) ([2]; SW620 xenografts, AZD1208 30 mg/kg (FIG. 6H)) | PIM1-induced increase of HIF-1 activity (HRE-Luc normalized to Renilla-Luc) [3] | expression of HIF-1 target genes in tumor tissue (RT-PCR) ([4]; B24 and C34 tumors, AZD1208 30 mg/kg (FIG. 6K)) | HIF-1α levels in tumors (IHC) ([4]; B24 or C34 tumors, AZD1208 30 mg/kg (FIG. 6I)) | apoptosis (cleaved caspase-3 staining) ([4]; B24 or C34 tumors, AZD1208 30 mg/kg (FIG. 6J)) | tumor growth ([4]; B24 or C34 xenografts, AZD1208 30 mg/kg/day p.o. (FIG. 6G)) | tumor vasculature (H&E staining) ([4]; C34 and B24 tumors, AZD1208 30 mg/kg (FIG. 6H)) | cell viability (MTT) [5] | cell viability (MTT), sensitivity versus parental SW620 [6] | phosphorylation of wild-type HIF-1α at Thr455 by PIM1 [7] | phosphorylation of HIF-1α by PIM1 (autoradiography) [8] | transcript levels of hypoxia-inducible genes upregulated at least 3-fold by PIM1 [9] | in vitro kinase assay (32P-ATP autoradiography; mass spectrometry of phosphorylation sites) [10] | kinase assay on immunoprecipitated HA-HIF-1α, western blot with phospho-T455 antibody [11] |
| --- | --- | --- | --- | --- | --- | --- | --- | --- | --- | --- | --- | --- | --- | --- | --- | --- | --- | --- | --- |
| N[C@@H]1CCCN(c2c(/C=C3\SC(=O)NC3=O)cccc2-c2ccccc2)C1 [AZD1208] | blocked the ability of PIM1 to increase HIF-1α protein levels | significantly reduced | increased | reduced | significantly reduced | disrupted tumor vasculature | reversed | no effect | refractory to PIM inhibition | no significant apoptosis was observed | unable to slow the growth | regular vasculature was observed | significant and dose-dependent reduction in viability | less sensitive | blocked | phosphorylation was lost | significantly reduced | – | – |
| recombinant full-length GST-PIM1 | – | – | – | – | – | – | – | – | – | – | – | – | – | – | – | – | – | Autoradiography revealed that PIM1 is able to phosphorylate HIF-1α, and phosphorylation was lost in the presence of a PIM inhibitor | Wild-type HIF-1α displayed robust phosphorylation at Thr455 by PIM1, which was blocked by AZD1208 |

Source: patent US20230212296A1, “SYSTEMS AND METHODS FOR TREATING CANCER” (Arizona Board of Regents on Behalf of the University of …, priority 2020, published 2023)
